Reference: patent US20060166992A1, “Heterocyclically substituted imidazotriazines” (Bayer Healthcare A G, priority 2002, published 2006)

Assays:
PDE 10A = target: T1, PDE 10A (Homo sapiens, UniProt Q9Y233); assay: Inhibition of PDE 10A (scintillation proximity assay, [3H]cAMP substrate); assay type: biochemical; conditions: recombinant full-length PDE 10A expressed in Sf9 insect cells; 60 min at 20° C.
T1 construct: is expressed recombinantly in full length in Sf9 insect cells; made in house; host or cells: Sf9 insect cells (Bac-to-Bac baculovirus expression system)
Experimental: PDE 10A (WO 01/29 199, FIG. 1A) is expressed recombinantly in full length in Sf9 insect cells (Invitrogen, Carlsbad, Calif.) with the aid of the Bac-to-Bac™ Baculovirus expression system from Life Technologies (Gaithersburg, Md.). 48 h after infection, the cells are harvested and suspended in 20 ml (per 11 of culture) of lysis buffer (50 mM tris HCl, pH 7.4, 50 mM NaCl, 1 mM MgCl2, 1.5 mM EDTA, 10% glycerol plus 20 μl of Protease Inhibitor Cocktail Set II [CalBiochem, La Jolla, Calif. USA]). The cells are treated with ultrasound at 4° C. for 1 minute and subsequently centrifuged at 10 000 rpm for 30 minutes at 4° C. The supernatant (PDE 10A preparation) was collected and stored at −20° C.
The test substances are dissolved in 100% DMSO for the determination of their in vitro action on PDE 10A and serially diluted. Typically, dilution series from 200 μM to 1.6 μM are prepared (resulting final concentrations in the test: 4 μM to 0.032 μM). 2 μl of the diluted substance solutions in each case are introduced into the hollows of microtiter plates (Isoplate; Wallac Inc., Atlanta, Ga.). Subsequently, 50 μl of a dilution of the PDE 10A preparation described above are added. The dilution of the PDE 10A preparation is chosen such that during the later incubation less than 70% of the substrate is reacted (typical dilution: 1:10 000; dilution buffer: 50 mM tris/HCl pH 7.5, 8.3 mM MgCl2, 1.7 mM EDTA, 0.2% BSA). The substrate, [5′,8-^3H] adenosine 3′,5′-cyclic phosphate (1 μCi/μl; Amersham Pharmacia Biotech., Piscataway, N.J.) is diluted 1:2000 with assay buffer (50 mM tris/HCl pH 7.5, 8.3 mM MgCl2, 1.7 mM EDTA) to a concentration of 0.0005 μCi/μl. The enzyme reaction is finally started by addition of 50 μl (0.025 μCi) of the diluted substrate. The test batches are incubated for 60 min at 20° C. and the reaction is stopped by addition of 25 μl of a suspension containing 18 mg/ml of Yttrium Scintillation Proximity Beads (Amersham Pharmacia Biotech., Piscataway, N.J.). The microtiter plates are sealed using a film and allowed to stand for 60 min at 20° C. Subsequently, the plates are measured for 30 s per hollow in a Microbeta scintillation counter (Wallac Inc., Atlanta, Ga.). IC50 values are determined by means of graphic plotting of the substance concentration against the percentage inhibition.
The PDE 10A-inhibiting action of the compounds according to the invention may be shown by the following examples: […]

haloperidol catalepsy [1] = assay: Catalepsy test on rats (potentiation of haloperidol catalepsy); assay type: in vivo; conditions: 3 mg/kg intraperitoneal together with haloperidol (0.3 mg/kg s.c.), significant
Experimental: The period of time which elapses up to the correction of an imposed position can be used as a measure of the intensity of catalepsy.
A low dose of haloperidol (0.3 mg/kg s.c.) is given on its own 30 min before the catalepsy test or administered together with the compound. In order to measure the cataleptic behavior, both forepaws of the rat are put onto a block of wood of 9 cm height and 5.5 cm width×5.5 cm depth. The time which elapses until an animal pulls its forepaws down from the block again is recorded as the duration of catalepsy. All rats are taken from the block of wood after 60 seconds at the latest. The data acquired from each treatment group (10 animals in each case) are analyzed statistically by means of variance analysis (ANOVA).

haloperidol catalepsy [2] = conditions: described in EP-A 1 250 923; cited from earlier work

T1 sequence (Q9Y233 1-779 isoform Q9Y233-1): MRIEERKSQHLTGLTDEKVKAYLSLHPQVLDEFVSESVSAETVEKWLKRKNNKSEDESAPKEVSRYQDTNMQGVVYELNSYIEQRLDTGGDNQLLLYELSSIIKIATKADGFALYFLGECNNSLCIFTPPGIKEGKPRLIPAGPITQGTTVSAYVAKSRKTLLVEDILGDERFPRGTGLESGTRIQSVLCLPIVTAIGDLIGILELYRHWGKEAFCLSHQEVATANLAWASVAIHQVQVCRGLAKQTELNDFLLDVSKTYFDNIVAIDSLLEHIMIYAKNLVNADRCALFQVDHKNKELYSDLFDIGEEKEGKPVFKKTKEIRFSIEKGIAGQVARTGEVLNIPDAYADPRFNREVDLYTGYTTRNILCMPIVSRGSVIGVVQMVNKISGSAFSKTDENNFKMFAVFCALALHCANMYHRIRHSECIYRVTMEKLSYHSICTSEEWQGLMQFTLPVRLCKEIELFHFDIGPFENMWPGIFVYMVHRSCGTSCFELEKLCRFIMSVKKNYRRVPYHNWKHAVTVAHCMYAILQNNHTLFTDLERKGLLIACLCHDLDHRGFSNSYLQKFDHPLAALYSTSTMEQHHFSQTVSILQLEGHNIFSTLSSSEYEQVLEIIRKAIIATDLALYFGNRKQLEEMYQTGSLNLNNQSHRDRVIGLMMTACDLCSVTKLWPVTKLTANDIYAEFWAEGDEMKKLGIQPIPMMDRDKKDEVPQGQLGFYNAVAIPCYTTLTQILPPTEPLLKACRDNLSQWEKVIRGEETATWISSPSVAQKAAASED

COc1cc(Oc2nc(-c3ccc(C)nc3)nn3c(C)nc(C)c23)cc(OC)c1OC [Example 9]
IC50 (PDE 10A): 38 nM

COc1cc(Oc2nc(-c3cccnc3)nn3c(C(C)C)nc(C)c23)cc(OC)c1OC [Example 10, 7-isopropyl-5-methyl-2-(3-pyridinyl)-4-(3,4,5-trimethoxyphenoxy)imidazo[5,1-f][1,2,4]triazine]
IC50 (PDE 10A): 8 nM

COc1cc(Nc2nc(-c3cnc(C)s3)nn3c(C)nc(C)c23)cc(OC)c1OC [Example 12, 5,7-Dimethyl-2-(2-methyl-1,3-thiazol-5-yl)-N-(3,4,5-trimethoxyphenyl)imidazo-[5,1-f][1,2,4]triazin-4-amine]
IC50 (PDE 10A): 93 nM

COc1cc(Nc2nc(-c3ccncc3)nn3c(C)nc(C)c23)cc(OC)c1OC [Example 14]
IC50 (PDE 10A): 150 nM

COc1cc(Nc2nc(-c3cccnc3)nn3c(C)nc(C)c23)cc(OC)c1OC [Example 16]
IC50 (PDE 10A): 30 nM
increase in the duration of catalepsy (haloperidol catalepsy [1]): 103%

COc1ccc(Cc2nccc3cc(OC)c(OC)cc23)cc1OC [papaverine]
effect on haloperidol catalepsy (haloperidol catalepsy [2]): potentiation of haloperidol catalepsy
